In test [1] the target is CB1R (Homo sapiens, UniProt P21554). As to the kind of experiment: CB1R radioligand displacement binding assay (CP55940 radioligand). As to the method: Heterologous competition binding assays were performed to calculate receptor affinities. Unlabeled SR141716 or SR144528 were used as appropriate controls for non-specific binding (NSB) in the assay. Calculation of the equilibrium dissociation constant (Ki) was performed using the Cheng-Prusoff equation.

Test [2] concerns the target CB2R (Homo sapiens, UniProt P34972). Put plainly: CB2R radioligand displacement binding assay (CP55940 radioligand). The method, then: Detailed radioligand displacement assays (using the well-characterized CBR agonist […] as the radioligand) were conducted to determine the affinity (Ki) of the test compounds for CB1R and CB2R as has been previously described by our group^112,113. Heterologous competition binding assays were performed to calculate receptor affinities. Unlabeled SR141716 or SR144528 were used as appropriate controls for non-specific binding (NSB) in the assay. Calculation of the equilibrium dissociation constant (Ki) was performed using the Cheng-Prusoff equation.
(In general: Loss of bound radioactivity is the signal in a displacement assay; it reports binding, not function.)

Where [3] appears, read: Table 1, CP55940 radioligand, read-out: CB1_KI_CP.

Where two headings read alike, the source gives them in different places.

Chain of CB2R (P34972 whole entry): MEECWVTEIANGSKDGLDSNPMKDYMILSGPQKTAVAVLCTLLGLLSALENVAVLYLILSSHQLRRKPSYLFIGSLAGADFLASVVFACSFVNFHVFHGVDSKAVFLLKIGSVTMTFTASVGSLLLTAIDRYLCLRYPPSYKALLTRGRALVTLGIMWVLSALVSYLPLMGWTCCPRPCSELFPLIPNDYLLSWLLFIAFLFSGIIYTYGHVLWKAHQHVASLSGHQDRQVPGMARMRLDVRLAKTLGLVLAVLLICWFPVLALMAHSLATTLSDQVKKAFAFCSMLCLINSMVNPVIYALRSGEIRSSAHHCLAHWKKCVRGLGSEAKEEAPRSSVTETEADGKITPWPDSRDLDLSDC
Chain of CB1R (P21554 whole entry): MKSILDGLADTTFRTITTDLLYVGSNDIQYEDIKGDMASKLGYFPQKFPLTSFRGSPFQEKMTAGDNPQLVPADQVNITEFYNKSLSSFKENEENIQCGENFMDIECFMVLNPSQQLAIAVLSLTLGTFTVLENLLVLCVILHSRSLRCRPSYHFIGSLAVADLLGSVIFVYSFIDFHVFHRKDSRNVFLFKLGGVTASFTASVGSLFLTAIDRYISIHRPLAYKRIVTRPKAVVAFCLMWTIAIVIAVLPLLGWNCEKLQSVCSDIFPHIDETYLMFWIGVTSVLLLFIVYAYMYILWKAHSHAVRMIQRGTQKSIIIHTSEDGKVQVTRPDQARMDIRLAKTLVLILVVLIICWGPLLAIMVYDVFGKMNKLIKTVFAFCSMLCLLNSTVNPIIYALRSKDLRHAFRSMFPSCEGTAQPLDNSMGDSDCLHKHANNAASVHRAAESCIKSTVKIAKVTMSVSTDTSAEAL

Regarding `CCCCCn1cc(C(=O)c2cccc3ccccc23)c2ccccc21` [Compound 1, 3-(naphthalene-1-carbonyl)-1-pentyl-1H-indole, reference compound], the results for the Ki in test [1] (setting [3]) and in test [2] were 4.31 nM and 7.38 nM, respectively.
With `C1=C(CCN2CCOCC2)c2ccccc2/C1=C/c1ccc2c3c(cccc13)CC2` [Compound 12, 4-{2-[(1E)-1-(1,2-dihydroacenaphth-ylen-5-ylmethylidene)-1H-inden-3-yl]ethyl} morpholine], the Ki was found to be 15.9 nM in test [1] (read-out: CB1R binding affinity (Ki)) and 4.22 nM in test [2] (Table 1, CP55940 radioligand, read-out: CB2_KI_CP).
On to `C1=C(CCN2CCOCC2)c2ccccc2/C1=C/c1cccc2ccc3ccccc3c12` [Compound 13, 4-{2-[(1E)-1-(phenanthren-4-ylmethylidene)-1H-inden-3-yl]ethyl} morpholine], for which the figures for the Ki in test [1] (setting [3]) and in test [2] were 22.9 nM and 6 nM, respectively.
Regarding `C1=C(CCN2CCOCC2)c2ccccc2/C1=C/c1ccnc2ccccc12` [Compound 14, 4-{[(1E)-3-[2-(morpholin-4-yl)ethyl]-1H-inden-1-ylidene]methyl} quinoline], the Ki in test [1] came to 23 nM; in test [1] (setting [3]), 23.3 nM; in test [2], 12.1 nM.
Consider `CC1=C(CCN2CCOCC2)c2ccccc2/C1=C/c1cccc2ccccc12` [Compound 15, 4-{2-[(1E)-2-methyl-1-(naphthalen-1-ylmethylidene)-1H-inden-3-yl]ethyl} morpholine], for which the Ki in test [2] came out at 2.84 nM.
Consider `C1=C(CCN2CCOCC2)c2ccccc2/C1=C/c1ccccc1-c1ccccc1` [Compound 16, 4-{2-[(1E)-1-[(2-phenylphenyl)methylidene]-1H-inden-3-yl]ethyl} morpholine], for which the Ki in test [1] (setting [3]) came to 82.9 nM; in test [2], 15.3 nM.
For `C1=C(CCN2CCOCC2)c2ccccc2/C1=C/c1cccc2cc[nH]c12` [Compound 17, 7-{[(1E)-3-[2-(morpholin-4-yl)ethyl]-1H-inden-1-ylidene]methyl}-1H-indole], the Ki in test [1] (setting [3]) came out at 107 nM; in test [2], 8.7 nM.
As for `COc1ccccc1/C=C1\C=C(CCN2CCOCC2)c2ccccc21` [Compound 18, 4-{2-[(1E)-1-[(2-methoxyphenyl)meth-ylidene]-1H-inden-3-yl]ethyl} morpholine], the Ki in test [1] (setting [3]) was 149 nM; in test [2], 29.8 nM.
The corresponding values for `CCCCCC1=C/C(=C\c2cccc3ccccc23)c2ccccc21` [Compound 19, 1-{[(1E)-3-pentyl-1H-inden-1-ylidene]methyl} naphthalene, reference compound] are 17.2 nM and 163 nM.
For `C1=C(CCN2CCOCC2)c2ccccc2/C1=C/c1ccc2ccccc2c1` [Compound 20, 4-{2-[(1E)-1-(naphthalen-2-ylmethylidene)-1H-inden-3-yl]ethyl} morpholine] the same measures were 134 nM and 24.4 nM.
Compound `CCCCCCC1=C/C(=C\c2cccc3ccccc23)c2ccccc21` [Compound 21, 1-{[(1E)-3-hexyl-1H-inden-1-ylidene]methyl} naphthalene] registered a Ki in test [2] of 1450 nM.
Take `C1=C(CCN2CCOCC2)c2ccccc2/C1=C/c1cccc2cnccc12` [Compound 22, 5-{[(1E)-3-[2-(morpholin-4-yl)ethyl]-1H-inden-1-ylidene]methyl} isoquinoline]: the Ki came out at 454 nM in test [1] (setting [3]) and 51.4 nM in test [2].
On to `Ic1ccccc1/C=C1\C=C(CCN2CCOCC2)c2ccccc21` [Compound 23, 4-{2-[(1E)-1-[(2-iodophenyl)methyl-idene]-1H-inden-3-yl]ethyl} morpholine], for which the Ki in test [1] (setting [3]) is 607 nM; in test [2], 109 nM.
As for `Cc1ccccc1/C=C1\C=C(CCN2CCOCC2)c2ccccc21` [Compound 24, 4-{2-[(1E)-1-[(2-methylphenyl)methylidene]-1H-inden-3-yl]ethyl} morpholine], the figures for the Ki in test [1] (setting [3]) and in test [2] were 623 nM and 95.4 nM, respectively.
The corresponding values for `Brc1ccccc1/C=C1\C=C(CCN2CCOCC2)c2ccccc21` [Compound 25, 4-{2-[(1E)-1-[(2-bromophenyl)methylidene]-1H-inden-3-yl]ethyl} morpholine] are 647 nM and 206 nM.
In the case of `Clc1ccccc1/C=C1\C=C(CCN2CCOCC2)c2ccccc21` [Compound 26, 4-{2-[(1E)-1-[(2-chlorophenyl)methylidene]-1H-inden-3-yl]ethyl} morpholine], in test [1] (setting [3]), the Ki is 862 nM.
With `Fc1ccccc1/C=C1\C=C(CCN2CCOCC2)c2ccccc21` [Compound 28, 4-{2-[(1E)-1-[(2-fluorophenyl)methylidene]-1H-inden-3-yl]ethyl} morpholine], the Ki was determined as 1000 nM in test [1] (setting [3]) and 429 nM in test [2].
In the case of `C1=C(CCN2CCOCC2)c2ccccc2/C1=C/c1ccccc1` [Compound 29, 4-{2-[(1E)-1-(phenyl-methylidene)-1H-inden-3-yl]ethyl} morpholine], the Ki stood at 1300 nM in test [1] (setting [3]) and 295 nM in test [2].
The corresponding values for `C1=C(CCN2CCOCC2)c2ccccc2/C1=C/c1cccs1` [Compound 30, 4-{2-[(1E)-1-(thiophen-2-ylmethylidene)-1H-indene-3-yl]ethyl} morpholine] are 8530 nM and 3020 nM.
As for `C1=C(CCN2CCOCC2)c2ccccc2/C1=C/c1ccco1` [Compound 31, 4-{2-[(1E)-1-(furan-2-ylmethylidene)-1H-inden-3-yl]ethyl} morpholine], in test [2], the Ki was 1260 nM.
As to `C[N+]1(CCC2=C/C(=C\c3cccc4ccccc34)c3ccccc32)CCOCC1` [Compound 35, 4-methyl-4-{2-[(1E)-1-(naphthalen-1-ylmethylidene)-1H-inden-3-yl]ethyl} morpholin-4-ium iodide], the Ki in test [1] (setting [3]) was 982 nM.
Same read-out and setting: the value for `CC1=C(CC[N+]2(C)CCOCC2)c2ccccc2/C1=C/c1cccc2ccccc12` [Compound 36, 4-methyl-4-{2-[(1E)-2-methyl-1-(naphthalen-1-ylmethylidene)-1H-inden-3-yl]ethyl} morpholin-4-ium iodide] was 1610 nM.
With `C1=C(CCN2CCOCC2)c2ccccc2/C1=C/c1cccc(-c2ccccc2)c1` [Compound 37, 4-{2-[(1E)-1-[(3-phenylphenyl)methylidene]-1H-inden-3-yl]ethyl} morpholine], the results for the Ki in test [1] (setting [3]) and in test [2] were 2600 nM and 132 nM, respectively.
With `CCCCCCC1=C/C(=C\Cc2ccccc2)c2ccccc21` [Compound 38, (1E)-3-hexyl-1-(2-phenyl-ethylidene)-1H-indene], the Ki worked out at 4410 nM in test [1] and 13700 nM in test [2].
Consider `O=C(c1cccc2ccccc12)c1cn(CCN2CCOCC2)c2ccccc12` [Compound 39, 1-[2-(morpholin-4-yl)ethyl]-3-(naphthalene-1-carbonyl)-1H-indole, reference compound], for which the Ki in test [1] (setting [3]) was 81.6 nM.
As for `COc1ccc(C(=O)c2cn(CC[N+]3(C)CCOCC3)c3ccccc23)c2ccccc12` [Compound 41, 4-{2-[3-(4-methoxynaphth-alene-1-carbonyl)-1H-indol-1-yl]ethyl}-4-methylmorpholin-4-ium iodide], the Ki in test [1] (setting [3]) stood at 4080 nM.
`COc1ccc(C(=O)c2cn(CCN3CCOCC3)c3ccccc23)c2ccccc12` [Compound 42, 3-(4-methoxynaphtha-lene-1-carbonyl)-1-[2-(morpholin-4-yl)ethyl]-1H-indole, reference compound]: in test [1] (setting [3]), the Ki came to 88.1 nM.
Still for that read-out and setting: as for `Cc1ccc(C(=O)c2cn(CC[N+]3(C)CCOCC3)c3ccccc23)c2ccccc12` [Compound 43, 4-methyl-4-{2-[3-(4-methyl-naphthalene-1-carbonyl)-1H-indol-1-yl]ethyl}morpholin-4-ium iodide], the figure is 4170 nM; as for `Cc1ccc(C(=O)c2cn(CCN3CCOCC3)c3ccccc23)c2ccccc12` [Compound 44, 3-(4-methyl-naphthalene-1-carbonyl)-1-[2-(morpholin-4-yl)ethyl]-1H-indole, reference compound], 20.2 nM; as for `CCOC(=O)CCCn1cc(C(=O)c2cccc3ccccc23)c2ccccc21` [Compound 50, ethyl 4-[3-(naphthalene-1-carbonyl)-1H-indol-1-yl]butanoate], 747 nM.
The same measure, in the same setting: as for `CCOC(=O)CCCCn1cc(C(=O)c2cccc3ccccc23)c2ccccc21` [Compound 53, ethyl 5-[3-(naphthalene-1-carbonyl)-1H-indol-1-yl]pentanoate], the figure is 1470 nM.
Take `CCCCCn1cc(C(=O)c2ccc(C(=O)OCC)c3ccccc23)c2ccccc21` [Compound 58, ethyl 4-(1-pentyl-1H-indole-3-carbonyl)naphth-alene-1-carboxylate]: the Ki in test [1] (setting [3]) came to 115 nM; in test [2] it was 53.9 nM.
Consider `CCCCCn1cc(C(=O)c2ccc(C(N)=O)c3ccccc23)c2ccccc21` [Compound 59, 4-(1-pentyl-1H-indole-3-carbonyl)naph-thalene-1-carboxamide], for which the Ki in test [1] (setting [3]) amounted to 96.6 nM; in test [2], 135 nM.
For `CCCCCn1cc(C(=O)c2ccc(C(=O)NC)c3ccccc23)c2ccccc21` [Compound 60, N-methyl-4-(1-pentyl-1H-indole-3-carbonyl) naphthalene-1-carboxamide] the same measures were 127 nM and 303 nM.
Regarding `O=C(c1cccc2ccccc12)c1cn(CCCCCF)c2cccc(F)c12` [Compound 66, 4-fluoro-1-(5-fluoropentyl)-3-(naphthalene-1-carbonyl)-1H-indole], the Ki in test [1] (setting [3]) amounted to 4.38 nM; in test [2] it was 2.94 nM.
The corresponding values for `O=C(c1cccc2ccccc12)c1cn(CCN2CCOCC2)c2cccc(F)c12` [Compound 68, 4-fluoro-1-[2-(morpholin-4-yl)ethyl]-3-(naphthalene-1-carbonyl)-1H-indole] are 237 nM and 95.2 nM.

Values taken from patent US9656981B2, “Peripherally-acting cannabinoid receptor agonists for chronic pain” (The Regents of the University of California, priority 2012, dated 2017).
